Data from patent US20260224534A1, “ALPHA-2-ADRENERGIC AGONISTS FOR IMPROVING VISION” (Bausch + Lomb Ireland Limited, priority 2023, published 2026).

How the values were obtained:
Assay type in all cases: in vivo, human
[1] = system: patients with glaucoma or ocular hypertension; assay: Phase 1/2 study Part 2: visual field mean deviation; conditions: for visual field change in mean deviation: non-study eye, Day 14; for visual field mean deviation change from Baseline at Day 14: study eyes, positive change = improvement; for Improvement ≥1 dB in Study Eye, number of patients / Improvement ≥1 dB in Study Eye, percentage of patients / Improvement ≥1 dB in Treated Non-Study Eye, number of patients / Improvement ≥1 dB in Treated Non-Study Eye, percentage of patients: visual field
[2] = system: patients with glaucoma or ocular hypertension; assay: Phase 1/2 study Part 2: pupil size
Description: (§1) Part 1 was an open-label dose escalation study. The purpose of Part 1 of this study (WB007-001), was to assess the safety, tolerability, and IOP-lowering effects of a single drop of an ophthalmic solution containing [3-[(1S)-1-(1H-imidazole-5-yl)ethyl]-2-methylphenyl]methyl-2,2-dimethylpropanoate (Compound 1) with concentrations ranging from 0.05% to 0.4%. […] In addition to assessing the efficacy of Compound 1 on lowering IOP, the study also assessed the effects of the drug on visual function.
The effect of Compound 1 on pupil size was assessed at the baseline visit and on Day 14.

[3] = system: patients with glaucoma or ocular hypertension; assay: Phase 1/2 study Part 2: double-masked, randomized, active controlled, ocular hypotensive efficacy (IOP), twice daily; conditions: for mean change from baseline in IOP, primary endpoint: Part 2, Day 14, Hour 2, study eye; for IOP-lowering effect, mean change from baseline in the study eye at all postbaseline timepoints: Part 2, both Compound 1 groups (0.15%, 0.4%) p≤0.007, Timolol p≤0.004
[4] = system: patients with glaucoma or ocular hypertension; assay: Phase 1/2 study: safety, tolerability and comfort; conditions: both doses (0.15%, 0.4%)
Description: as §1

[5] = system: patients with glaucoma or ocular hypertension; assay: Phase 1/2 study Part 2: low-luminance ETDRS visual acuity
Description: Low-luminance visual acuity refers to visual acuity determined using the standard Early Treatment Diabetic Retinopathy Study (ETDRS) chart with a 2.0 log unit neutral density filter placed in front of the eye.
as §1
Additional analyses examining the effect of Compound 1 on visual function included low-luminance visual acuity and visual fields.

Structure (SMILES): Cc1c(COC(=O)C(C)(C)C)cccc1[C@H](C)c1c[nH]cn1 [Compound 1, [3-[(1S)-1-(1H-imidazole-5-yl)ethyl]-2-methylphenyl]methyl-2,2-dimethylpropanoate]
- visual field change in mean deviation ([1]; 0.15%): 0.4±1.5 dB
- visual field change in mean deviation ([1]; 0.4%): −0.2±1.4 dB
- visual field mean deviation change from Baseline at Day 14 ([1]; 0.15%): 0.2±1.2 dB
- visual field mean deviation change from Baseline at Day 14 ([1]; 0.4%): −0.5±2.3 dB
- Improvement ≥1 dB in Study Eye, number of patients ([1]; 0.15%): 9 patients
- Improvement ≥1 dB in Study Eye, percentage of patients ([1]; 0.15%): 39%
- Improvement ≥1 dB in Treated Non-Study Eye, number of patients ([1]; 0.15%): 7 patients
- Improvement ≥1 dB in Treated Non-Study Eye, percentage of patients ([1]; 0.15%): 30%
- Improvement ≥1 dB in Study Eye, number of patients ([1]; 0.4%): 6 patients
- Improvement ≥1 dB in Study Eye, percentage of patients ([1]; 0.4%): 25%
- Improvement ≥1 dB in Treated Non-Study Eye, number of patients ([1]; 0.4%): 6 patients
- Improvement ≥1 dB in Treated Non-Study Eye, percentage of patients ([1]; 0.4%): 25%
- effect on pupil size ([2]; either dose (0.15%, 0.4%)): no meaningful decrease in pupil size
- mean change in pupil size from Baseline to Day 14 at Hour 0 ([2]; study eyes, 0.15%): 0.0 mm
- mean change in pupil size from Baseline to Day 14 at Hour 0 ([2]; study eyes, 0.4%): −0.1 mm
- mean change in pupil size from Baseline to Day 14 at Hour 0 ([2]; treated non-study eyes, 0.15%): 0.0 mm
- mean change in pupil size from Baseline to Day 14 at Hour 0 ([2]; treated non-study eyes, 0.4%): −0.1 mm
- mean change from baseline in IOP, primary endpoint ([3]; 0.15% twice daily): −4.9±1.8 mm Hg
- mean change from baseline in IOP, primary endpoint ([3]; 0.4% twice daily): −5.1±2.5 mm Hg
- IOP-lowering effect, mean change from baseline in the study eye at all postbaseline timepoints [3]: statistically significant IOP-lowering effects
- safety and tolerability [4]: safe and well-tolerated
- percentage of subjects achieving an increase in ETDRS visual acuity of 15 or more letters under low luminance on at least one study visit ([5]; non-study eye, 0.15%): 17.4%
- percentage of subjects achieving an increase in ETDRS visual acuity of 15 or more letters under low luminance on at least one study visit ([5]; non-study eye, 0.4%): 25.0%
- effect on low luminance visual acuity ([5]; patients receiving 0.15% or 0.4%): Dose related improvements in low luminance visual acuity
- percentage of subjects achieving an increase in ETDRS visual acuity of 15 or more letters under low luminance on at least one study visit ([5]; study eye, 0.15%): 8.7%
- percentage of subjects achieving an increase in ETDRS visual acuity of 15 or more letters under low luminance on at least one study visit ([5]; study eye, 0.4%): 16.7%

Structure (SMILES): CC(C)(C)NC[C@H](O)COc1nsnc1N1CCOCC1 [Timolol, timolol, reference compound]
- visual field change in mean deviation ([1]; Timolol 0.5%): −2.0±3.4 dB
- visual field mean deviation change from Baseline at Day 14 ([1]; Timolol 0.5%): −1.2±2.3 dB
- Improvement ≥1 dB in Study Eye, number of patients ([1]; Timolol 0.5%): 2 patients
- Improvement ≥1 dB in Study Eye, percentage of patients ([1]; Timolol 0.5%): 17%
- Improvement ≥1 dB in Treated Non-Study Eye, number of patients ([1]; Timolol 0.5%): 0 patients (0%)
- Improvement ≥1 dB in Treated Non-Study Eye, percentage of patients ([1]; Timolol 0.5%): 0 patients (0%)
- mean change in pupil size from Baseline to Day 14 at Hour 0 ([2]; study eyes, Timolol 0.5%): −0.1 mm
- mean change in pupil size from Baseline to Day 14 at Hour 0 ([2]; treated non-study eyes, Timolol 0.5%): −0.1 mm
- mean change from baseline in IOP, primary endpoint ([3]; 0.5% timolol ophthalmic solution): −6.0±3.0 mm Hg
- IOP-lowering effect, mean change from baseline in the study eye at all postbaseline timepoints [3]: statistically significant IOP-lowering effects
- percentage of subjects achieving an increase in ETDRS visual acuity of 15 or more letters under low luminance on at least one study visit ([5]; non-study eye, timolol 0.5%): 8.3%
- percentage of subjects achieving an increase in ETDRS visual acuity of 15 or more letters under low luminance on at least one study visit ([5]; study eye, timolol 0.5%): 0%
